The target in this assay is T1, KRAS (aa 1-169) G12C, C51S, C80L, C118S (Homo sapiens, UniProt P01116, C118S/C51S/C80L/G12C).
T1 construct: The KRAS (aa 1-169) G12C, C51S, C80L, C118S with a His-tag; made in house
As to the kind of experiment: KRAS G12C SOS1-mediated nucleotide exchange / GST-cRaf RBD binding FRET assay. The class given is biochemical. The note with it: GDP-loaded KRAS G12C pre-incubated with compound at 24° C. for 3 hrs; SOS1, GTPγS and GST-cRaf RBD added; FRET 665 nm/620 nm. As for the experimental part: Biochemical Functional Assay:
The KRAS (aa 1-169) G12C, C51S, C80L, C118S with a His-tag was expressed, purified and loaded with GDP in house. All protein and substrate solutions were prepared in assay buffer containing 25 mM HEPES pH7.5, 10 mM MgCl2, and 0.01% Triton X-100. Purified GDP-loaded KRAS (aa 1-169) G12C, C51S, C80L, C118S protein was pre-incubated with a serially diluted compound at 24° C. for 3 hrs. Purified SOS1 (aa 564-1049) protein, GTPγS (Sigma) and GST-cRaf RBD (aa 1-149) were then added to each well and incubated at 24° C. for additional 3 hrs. […] Following the incubation, Mab Anti-6HIS-Tb cryptate (Cisbio) and Mab Anti GST-XL665 (Cisbio) were added and further incubated at 24° C. for 3 hrs. The binding interaction between active GTPγS KRAS G12C and GST-cRaf RBD brings the Tb and XL665 into close proximity enabling an increased FRET signal (Ex337 nm, Em665 nm/620 nm). The inhibition percentage of nucleotide exchange reaction in presence of increasing concentrations of compounds was calculated based on the ratio of fluorescence at 665 nm to that at 620 nm detected on a BMG PHERAstar FSX instrument. The IC50 value of each compound was calculated from fitting the data to the four-parameter logistic model by Dotmatics.

Structures are written as SMILES.

In general, IC50 refers to the concentration that inhibits the measured activity by half.

T1 sequence (P01116 1-169 isoform P01116-2 G12C/C51S/C80L/C118S): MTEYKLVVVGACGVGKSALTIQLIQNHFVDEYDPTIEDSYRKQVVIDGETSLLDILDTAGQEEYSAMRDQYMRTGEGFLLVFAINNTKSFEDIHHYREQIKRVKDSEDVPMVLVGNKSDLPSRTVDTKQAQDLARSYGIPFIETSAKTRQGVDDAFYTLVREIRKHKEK

On to `C=CC(=O)N1CCN(c2nc(OCC3CCCN3C)nc3c2CN(C2Cc4cccc5cccc2c45)C3)CC1CC#N` (single isomer, unassigned) [Example 15 (P1)], for which the IC50 is 492 nM.

For `C=CC(=O)N1CCN(c2nc(OCC3CCCN3C)nc3c2CN(C2Cc4cccc5cccc2c45)C3)CC1CC#N` (single isomer, unassigned) [Example 15 (P2)], the IC50 came out at 5.27 nM.

Take `C=CC(=O)N1CCN(c2nc(N3CC(N(C)C)C3)nc3c2CN(C2Cc4cccc5cccc2c45)C3)CC1CC#N` (single isomer, unassigned) [Example 16 (P1)]: the IC50 is 5650 nM.

In the case of `C=CC(=O)N1CCN(c2nc(N3CC(N(C)C)C3)nc3c2CN(C2Cc4cccc5cccc2c45)C3)CC1CC#N` (single isomer, unassigned) [Example 16 (P2)], the IC50 was 256 nM.

Regarding `C=CC(=O)N1CCN(c2nc(OC3CCN(C)CC3)nc3c2CN(C2Cc4cccc5cccc2c45)C3)CC1CC#N` (single isomer, unassigned) [Example 17 (P1)], the IC50 amounted to 2200 nM.

`C=CC(=O)N1CCN(c2nc(OC3CCN(C)CC3)nc3c2CN(C2Cc4cccc5cccc2c45)C3)CC1CC#N` (single isomer, unassigned) [Example 17 (P2)]: the IC50 was determined as 949 nM.

On to `C=CC(=O)N1CCN(c2nc(OC[C@@H]3CCCN3C)nc3c2CN(Cc2cccc4ccccc24)C3)CC1` [Example 1, (S)-1-(4-(2-((1-methylpyrrolidin-2-yl)methoxy)-6-(naphthalen-1-ylmethyl)-6,7-dihydro-5H-pyrrolo[3,4-d]pyrimidin-4-yl)piperazin-1-yl)prop-2-en-1-one], for which the IC50 came out at 3280 nM.

In the case of `CN(C)C/C=C/C(=O)N1CCN(c2nc(OC[C@@H]3CCCN3C)nc3c2CN(Cc2cccc4ccccc24)C3)CC1` [Example 2, (S, E)-4-(dimethylamino)-1-(4-(2-((1-methylpyrrolidin-2-yl)methoxy)-6-(naphthalen-1-ylmethyl)-6,7-dihydro-5H-pyrrolo[3,4-d]pyrimidin-4-yl)piperazin-1-yl)but-2-en-1-one], the IC50 came out at 46000 nM.

For `C=CS(=O)(=O)N1CCN(c2nc(OC[C@@H]3CCCN3C)nc3c2CN(Cc2cccc4ccccc24)C3)CC1` [Example 3, (S)-2-((1-methylpyrrolidin-2-yl)methoxy)-6-(naphthalen-1-ylmethyl)-4-(4-(vinylsulfonyl)piperazin-1-yl)-6,7-dihydro-5H-pyrrolo[3,4-d]pyrimidine], the IC50 amounted to 23700 nM.

`C=CC(=O)N1CCN(c2nc(OC[C@@H]3CCCN3C)nc3c2CN(Cc2cccc(C)c2C)C3)C[C@@H]1CC#N` [Example 5, 2-((S)-1-acryloyl-4-(6-(2,3-dimethylbenzyl)-2-(((S)-1-methylpyrrolidin-2-yl)methoxy)-6,7-dihydro-5H-pyrrolo[3,4-d]pyrimidin-4-yl)piperazin-2-yl)acetonitrile]: the IC50 was determined as 56.1 nM.

`C=CC(=O)N1CCN(c2nc(OC[C@@H]3CCCN3C)nc3c2CN(Cc2cccc4ccccc24)C3)C[C@@H]1CC#N` [Example 6, 2-((S)-1-acryloyl-4-(2-(((S)-1-methylpyrrolidin-2-yl)methoxy)-6-(naphthalen-1-ylmethyl)-6,7-dihydro-5H-pyrrolo[3,4-d]pyrimidin-4-yl)piperazin-2-yl)acetonitrile]: the IC50 was 27.7 nM.

As to `C=CC(=O)N1CCN(c2nc(OC[C@@H]3CCCN3C)nc3cn(Cc4cccc5ccccc45)cc23)C[C@@H]1CC#N` [Example 7, 2-((S)-1-acryloyl-4-(2-(((S)-1-methylpyrrolidin-2-yl)methoxy)-6-(naphthalen-1-ylmethyl)-6H-pyrrolo[3,4-d]pyrimidin-yl)piperazin-2-yl)acetonitrile], the IC50 came to 174 nM.

In the case of `C=CC(=O)N1CCN(c2nc(OC[C@@H]3CCCN3C)nc3c2CN(Cc2cccc4cccc(C)c24)C3)C[C@@H]1CC#N` [Example 8, 2-((S)-1-acryloyl-4-(6-((8-methylnaphthalen-1-yl)methyl)-2-(((S)-1-methylpyrrolidin-2-yl)methoxy)-6,7-dihydro-5H-pyrrolo[3,4-d]pyrimidin-4-yl)piperazin-2-yl)acetonitrile], the IC50 came to 495 nM.

For the molecule `C=CC(=O)N1CCN(c2nc(OC[C@@H]3CCCN3C)nc3c2CN(Cc2cccc4cccc(Cl)c24)C3)C[C@@H]1CC#N` [Example 9, 2-((S)-1-acryloyl-4-(6-((8-chloronaphthalen-1-yl)methyl)-2-(((S)-1-methylpyrrolidin-2-yl)methoxy)-6,7-dihydro-5H-pyrrolo[3,4-d]pyrimidin-4-yl)piperazin-2-yl)acetonitrile], the IC50 was 265 nM.

As to `C=CC(=O)N1CCN(c2nc(OC[C@@H]3CCCN3C)nc3c2CN(Cc2ccc(F)c4ccccc24)C3)C[C@@H]1CC#N` [Example 10, 2-((S)-1-acryloyl-4-(6-((4-fluoronaphthalen-1-yl)methyl)-2-(((S)-1-methylpyrrolidin-2-yl)methoxy)-6,7-dihydro-5H-pyrrolo[3,4-d]pyrimidin-4-yl)piperazin-2-yl)acetonitrile], the IC50 came out at 415 nM.

Consider `C=CC(=O)N1CCN(c2nc(OC[C@@H]3CCCN3C)nc3c2CN(C(C)c2cccc4ccccc24)C3)C[C@@H]1CC#N` (stereo partly drawn) [Example 11, 2-((2S)-1-acryloyl-4-(2-(((S)-1-methylpyrrolidin-2-yl)methoxy)-6-(1-(naphthalen-1-yl)ethyl)-6,7-dihydro-5H-pyrrolo[3,4-d]pyrimidin-4-yl)piperazin-2-yl)acetonitrile], for which the IC50 was 170 nM.

Regarding `C=CC(=O)N1CCN(c2nc(OC3CCN(C4CCOCC4)CC3)nc3c2CN(C2Cc4cccc5cccc2c45)C3)C[C@@H]1CC#N` (stereo partly drawn) [Example 12, 2-((2S)-1-acryloyl-4-(6-(1,2-dihydroacenaphthylen-1-yl)-2-((1-(tetrahydro-2H-pyran-4-yl)piperidin-4-yl)oxy)-6,7-dihydro-5H-pyrrolo[3,4-d]pyrimidin-4-yl)piperazin-2-yl)acetonitrile], the IC50 was found to be 379 nM.

`C=CC(=O)N1CCN(c2nc(OC3CCN(C)CC3)nc3c2CN(Cc2cccc4ccccc24)C3)C[C@@H]1CC#N` [Example 18, (S)-2-(1-acryloyl-4-(2-((1-methylpiperidin-4-yl)oxy)-6-(naphthalen-1-ylmethyl)-6,7-dihydro-5H-pyrrolo[3,4-d]pyrimidin-4-yl)piperazin-2-yl)acetonitrile]: the IC50 worked out at 1560 nM.

For `C=CC(=O)N1CCN(c2nc(N3CC(N(C)C)C3)nc3c2CN(Cc2cccc4ccccc24)C3)C[C@@H]1CC#N` [Example 19, (S)-2-(1-acryloyl-4-(2-(3-(dimethylamino)azetidin-1-yl)-6-(naphthalen-1-ylmethyl)-6,7-dihydro-5H-pyrrolo[3,4-d]pyrimidin-4-yl)piperazin-2-yl)acetonitrile], the IC50 was found to be 976 nM.

As to `C=CC(=O)N1CCN(c2nc(OC[C@@H]3CCCN3C)nc3c2CN(Cc2ccc4ccccc4c2)C3)C[C@@H]1CC#N` [Example 20, 2-((S)-1-acryloyl-4-(2-(((S)-1-methylpyrrolidin-2-yl)methoxy)-6-(naphthalen-2-ylmethyl)-6,7-dihydro-5H-pyrrolo[3,4-d]pyrimidin-4-yl)piperazin-2-yl)acetonitrile], the IC50 was determined as 2880 nM.

`C=CC(=O)N1CCN(c2nc(OC[C@@H]3CCCN3C)nc3c2CN(Cc2cccc4c2CCO4)C3)C[C@@H]1CC#N` [Example 21, 2-((S)-1-acryloyl-4-(6-((2,3-dihydrobenzofuran-4-yl)methyl)-2-(((S)-1-methylpyrrolidin-2-yl)methoxy)-6,7-dihydro-5H-pyrrolo[3,4-d]pyrimidin-4-yl)piperazin-2-yl)acetonitrile]: the IC50 turned out to be 92.5 nM.

Turning to `C=CC(=O)N1CCN(c2nc(OC[C@@H]3CCCN3C)nc3c2CN(Cc2cc(O)ccc2F)C3)C[C@@H]1CC#N` [Example 22, 2-((S)-1-acryloyl-4-(6-(2-fluoro-5-hydroxybenzyl)-2-(((S)-1-methylpyrrolidin-2-yl)methoxy)-6,7-dihydro-5H-pyrrolo[3,4-d]pyrimidin-4-yl)piperazin-2-yl)acetonitrile], the IC50 turned out to be 9.63 nM.

As to `C=CC(=O)N1CCN(c2nc(OC[C@@H]3CCCN3C)nc3c2CN(Cc2c(O)cccc2F)C3)C[C@@H]1CC#N` [Example 23, 2-((S)-1-acryloyl-4-(6-(2-fluoro-6-hydroxybenzyl)-2-(((S)-1-methylpyrrolidin-2-yl)methoxy)-6,7-dihydro-5H-pyrrolo[3,4-d]pyrimidin-4-yl)piperazin-2-yl)acetonitrile], the IC50 amounted to 28.1 nM.

As to `C=CC(=O)N1CCN(c2nc(OC[C@@H]3CCCN3C)nc3c2CN(Cc2cccc4cccc(O)c24)C3)C[C@@H]1CC#N` [Example 24, 2-((S)-1-acryloyl-4-(6-((8-hydroxynaphthalen-1-yl)methyl)-2-(((S)-1-methylpyrrolidin-2-yl)methoxy)-6,7-dihydro-5H-pyrrolo[3,4-d]pyrimidin-4-yl)piperazin-2-yl)acetonitrile], the IC50 amounted to 101 nM.

Values taken from patent publication US12630552B2, “Inhibitors of KRAS G12C” (BEIGENE, LTD., priority 2019, dated 2026).
